Measured values from ChEMBL document CHEMBL1201862, “PubChem BioAssay data set” (2004).
The source made the active and inactive calls.

Tests used:
[1] = reduction of Shn3 3'UTR-driven luciferase in osteoblasts – cell-based, Clone20 osteoblasts, firefly luciferase, cherry-picked, dose response (AID 624132); type: functional;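 also: firefly luciferase luminescence from reporter carrying the Shn3 3'UTR in osteoblasts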
[2] = loss of viability in HepG2 cells – cell-based, CellTiter-Glo, cherry-picked, cytotoxicity control for Shn3 inhibitor project, dose response (AID 624134); type: functional
[3] = non-specific 3'UTR reporter inhibition in Clone20-Shn3RL – cell-based, Renilla luciferase, cherry-picked, counter-screen for Shn3 inhibitor project, dose response (AID 624133); type: functional
Protein Wnt-3a [4] = molecular target: T1, Protein Wnt-3a (Mus musculus, UniProt P27467); assay: antagonism of Wnt3a pathway luciferase reporter – Wnt-LIGHT cells, luminescence, selectivity assay for Gli-SUFU antagonist project, dose response (AID 651570); type: functional; conditions: read-out: IC50_Mean;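 also: Wnt-LIGHT reporter cells stimulated with conditioned medium from Wnt3a-producing cells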
[5] = Shn3 3'UTR reporter signal decrease – cell-based, Clone20 osteoblasts, firefly luciferase, cherry-pick, set 2, Schnurri-3 inhibitor project, dose response (AID 720490); type: functional;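 also: actives lower the luminescence signal as inhibitors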
[6] = EF1alpha-driven Renilla reporter with control 3'UTR suppression – Clone20-Shn3RL cells, dual-Glo, cherry-pick, set 2, counter-screen for Shn3 3'UTR targeting project, dose response (AID 720724); type: functional, cell-based; conditions: Dual-Go Shn3RL
[7] = HGIII-sPLA2 enzyme inhibition potency – biochemical, QFRET, IC50, dose response (AID 743457);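 also: green fluorescence rise as the enzyme cleaves BODIPY PC-A2 in liposomes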
[8] = viability loss in HepG2 hepatoma cells – cell-based, ATP luminescence, cherry-pick, activator set 2, cytotoxicity control, dose response (AID 1053143); type: functional
[9] = viability loss in THP-1 monocytes – THP-1 cells, cytotoxicity control for Vif-APOBEC3G degradation inhibitor project, dose response (AID 1117359); type: functional; conditions: THP-1
[10] = Late stage assay provider results from the probe development effort to identify inhibitors of the Plasmodium falciparum M18 Aspartyl Aminopeptidase (M18AAP): radiolabel-based cell-based dose response assay to identify compounds that inhibit P. falciparum growth in RBCs, Set 2..; type: functional
[11] = activation of miR-122 Renilla sensor silencing – cell-based, Huh7 psiCHECK-miR122, Renilla luciferase, cherry-picked, dose response (AID 651956); type: functional;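 also: huh7 hepatoma cells stably carrying a psiCHECK-2 miR-122 sensor plasmid; renilla luciferase signal reporting endogenous miR-122 activity after 48 h compound exposure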
[12] = general mammalian cell viability loss – activator set, cherry-pick, cytotoxicity control for miR-122 modulator project, dose response (AID 720690); type: functional, cell-based;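 also: HEK293T human cells scored for general mammalian cytotoxicity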
[13] = molecular target: Metabotropic glutamate receptor 5 (Rattus norvegicus, UniProt P31424); assay: Identification of a glycine sulfonamide based non-MPEP site positive allosteric potentiator (PAM) of mGlu5 (calcium_assay).; type: functional
[14] = blockers of HIV-1 envelope-mediated cell-cell fusion – cherry-pick, dose response (AID 652057); type: functional, cell-based
[15] = viability loss in CEM21 cells – cell-based, CellTiter-Glo luminescence, cherry-picked, cytotoxicity control for viral fusion inhibitor project, dose response (AID 652042); type: functional;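 also: potency for signal decrease meaning cytotoxicity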
[16] = blockers of HIV-1 ZM109 envelope-driven cell-cell fusion – HeLa effector, CEM target cells, luciferase, cherry-pick, dose response (AID 652058); type: functional, cell-based;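 also: luciferase signal from HIV-1 Env mediated cell-cell fusion of effector and target cells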
[17] = inhibition of Env-driven cell fusion – HIV entry, plate reader, dry powder, dose response (AID 687023); type: functional, cell-based
[18] = viability loss in CEM21 cells – cell-based, plate reader, dry powder, cytotoxicity control, dose response (AID 687026); type: functional
HeLa [19] = assay: viability loss in HeLa cells – cell-based, ATP luminescence, cherry-pick samples, cytotoxicity control, dose response (AID 687004); type: functional; conditions: Homo sapiens
[20] = viability loss in A549 lung cells – cell-based, 24 h, CellTiter-Glo luminescence, cherry-picks, cytotoxicity control, dose response (AID 1053115); type: functional; conditions: A549, 24 h
[21] = P. falciparum Dd2 growth inhibitors, dose response, SYBR Green, cherry-picked samples (AID 1159567); type: functional, cell-based
[22] = toxicity to human hepatoma HepG2 cells – cell-based, cherry-picked samples, cytotoxicity control, dose response (AID 1159577); type: functional
HEK293 = assay: viability loss in HEK293T cells – cell-based, ATP luminescence, cherry-pick samples, cytotoxicity control, dose response (AID 687005); type: functional; conditions: Homo sapiens;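 also: cells exposed to compound for 48 hours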
[23] = HEK293 Cytotoxicity Assay Measured in Cell-Based System Using Plate Reader - 7071-01_Inhibitor_Dose_CherryPick_Activity_Set2.; type: functional
[24] = anti-trypanosomal activity in BESM host cells – imaging, CA-I/72 strain, bovine embryo skeletal muscle, dry powder, dose response (AID 651885); type: functional, cell-based
[25] = T. cruzi growth inhibition in host cells, dose response, cell-based, plate reader, dry powder, set 2 (AID 652275); type: functional
[26] = molecular target: Muscarinic acetylcholine receptor M5 (Homo sapiens, UniProt P08912); assay: potentiation of ACh response at human M5 – cell-based, concentration-response curve, dose response (AID 651878); type: functional
[27] = viability of BHK-21 cells – cell-based, secondary screen, cytotoxicity control for flavivirus guanylyltransferase probe project (AID 624078); type: functional
[28] = kidney cell line viability loss – HEK293T, luminescence plate reader, powder samples, set 4, cytotoxicity control, dose response (AID 651863); type: functional, cell-based; conditions: HEK293
Protein Wnt-3a [29] = molecular target: T1, Protein Wnt-3a; assay: SAR analysis of small molecule antagonists of Gli-SUFU in a Wnt3a luminescent reporter assay.; type: functional
HeLa [30] = assay: viability loss in HeLa cells – cell-based, 24 h, cherry-picked samples, cytotoxicity control, dose response (AID 504726); type: functional, Homo sapiens; conditions: Homo sapiens, 24 h;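 also: potency for cytotoxicity as loss of luminescence signal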
P388/ADR = assay: cells; type: functional; conditions: Mus musculus
SN12K1 = assay: cells; type: functional; conditions: Homo sapiens
P388 = assay: cells; type: functional; conditions: Mus musculus
[31] = molecular target: T2, Small ubiquitin-related modifier 1 (Homo sapiens, UniProt P63165); assay: SUMO1 protein interaction blockers, potency – biochemical, fluorescence polarization, uHTS hits, dose response (AID 624382); type: functional; conditions: read-out: IC50_Mean
[32] = molecular target: T2, Small ubiquitin-related modifier 1; assay: SUMO1 protein-protein binding blockers, potency – biochemical, FRET, dose response (AID 624383); type: functional; conditions: read-out: IC50_Mean
[33] = viability loss in HeLa cells – cytotoxicity control for MgcRacGAP inhibitor project, dose response (AID 624300); type: functional
[34] = molecular target: T3, Rac GTPase-activating protein 1 (Homo sapiens, UniProt Q9H0H5); assay: blockers of MgcRacGAP-driven Rac1 GTP hydrolysis – biochemical, ADP Hunter fluorescence, primary and confirmatory, confirmation (AID 624330); type: functional
T3 sequence (Q9H0H5 whole entry): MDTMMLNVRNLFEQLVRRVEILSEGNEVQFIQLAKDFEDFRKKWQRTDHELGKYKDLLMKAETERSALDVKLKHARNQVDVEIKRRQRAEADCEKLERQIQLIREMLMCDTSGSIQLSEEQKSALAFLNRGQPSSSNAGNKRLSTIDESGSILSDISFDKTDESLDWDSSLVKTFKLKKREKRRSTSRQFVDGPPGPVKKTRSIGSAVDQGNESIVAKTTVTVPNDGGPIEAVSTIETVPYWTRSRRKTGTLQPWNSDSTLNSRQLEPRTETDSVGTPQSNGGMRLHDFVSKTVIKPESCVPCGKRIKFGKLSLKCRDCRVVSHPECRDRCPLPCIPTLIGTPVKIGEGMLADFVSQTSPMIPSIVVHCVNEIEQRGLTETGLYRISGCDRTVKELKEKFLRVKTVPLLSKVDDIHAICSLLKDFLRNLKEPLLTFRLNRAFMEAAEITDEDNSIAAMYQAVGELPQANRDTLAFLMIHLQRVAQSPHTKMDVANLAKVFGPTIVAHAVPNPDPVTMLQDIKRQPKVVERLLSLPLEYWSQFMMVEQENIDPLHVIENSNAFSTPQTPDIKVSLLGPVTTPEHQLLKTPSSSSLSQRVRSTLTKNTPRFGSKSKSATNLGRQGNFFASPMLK

[35] = molecular target: DNA repair protein RAD52 homolog (Homo sapiens, UniProt P43351); type: functional, biochemical
DNA repair protein RAD52 homolog, sequence (P43351 whole entry): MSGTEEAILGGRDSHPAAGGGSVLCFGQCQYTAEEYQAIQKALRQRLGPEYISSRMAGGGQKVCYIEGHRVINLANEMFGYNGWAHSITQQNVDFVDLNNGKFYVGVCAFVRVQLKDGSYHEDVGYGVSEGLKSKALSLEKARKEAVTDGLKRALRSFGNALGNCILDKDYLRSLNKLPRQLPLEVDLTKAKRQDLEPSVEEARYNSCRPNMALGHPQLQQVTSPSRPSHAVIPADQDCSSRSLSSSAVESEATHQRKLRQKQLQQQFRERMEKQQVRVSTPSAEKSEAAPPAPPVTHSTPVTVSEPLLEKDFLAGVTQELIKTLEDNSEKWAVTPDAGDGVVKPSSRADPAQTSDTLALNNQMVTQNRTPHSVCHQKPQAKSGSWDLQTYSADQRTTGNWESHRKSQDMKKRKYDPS

T1 sequence (P27467 whole entry): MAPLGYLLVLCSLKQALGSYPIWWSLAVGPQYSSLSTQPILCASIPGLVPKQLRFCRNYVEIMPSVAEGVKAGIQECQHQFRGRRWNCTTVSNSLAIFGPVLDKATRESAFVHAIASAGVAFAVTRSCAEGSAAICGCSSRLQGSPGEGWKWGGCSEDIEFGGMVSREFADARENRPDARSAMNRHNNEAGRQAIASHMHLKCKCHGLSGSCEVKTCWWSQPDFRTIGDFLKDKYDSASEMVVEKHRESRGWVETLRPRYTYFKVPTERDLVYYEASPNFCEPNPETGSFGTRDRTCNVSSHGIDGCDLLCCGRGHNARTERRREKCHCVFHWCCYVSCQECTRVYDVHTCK
T2 sequence (P63165 whole entry): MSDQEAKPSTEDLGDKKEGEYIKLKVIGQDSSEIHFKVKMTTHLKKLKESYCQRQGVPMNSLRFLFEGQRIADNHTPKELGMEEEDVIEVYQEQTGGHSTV
Muscarinic acetylcholine receptor M5, sequence (P08912 whole entry): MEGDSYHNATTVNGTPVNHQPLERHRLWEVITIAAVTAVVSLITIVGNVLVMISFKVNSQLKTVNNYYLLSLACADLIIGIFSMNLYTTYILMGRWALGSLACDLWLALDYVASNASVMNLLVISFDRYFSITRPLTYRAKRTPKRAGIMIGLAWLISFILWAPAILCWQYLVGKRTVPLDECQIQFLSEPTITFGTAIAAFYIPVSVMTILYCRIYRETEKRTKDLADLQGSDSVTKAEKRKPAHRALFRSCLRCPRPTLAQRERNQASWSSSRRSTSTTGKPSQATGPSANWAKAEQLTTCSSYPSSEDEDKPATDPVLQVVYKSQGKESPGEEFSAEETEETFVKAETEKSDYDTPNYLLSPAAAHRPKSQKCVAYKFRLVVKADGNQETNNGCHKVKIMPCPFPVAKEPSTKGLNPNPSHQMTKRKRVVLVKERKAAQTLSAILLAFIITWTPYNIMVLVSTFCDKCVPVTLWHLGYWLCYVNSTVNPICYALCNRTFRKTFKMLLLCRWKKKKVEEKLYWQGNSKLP
Metabotropic glutamate receptor 5, sequence (P31424 whole entry, the tested form may be a part): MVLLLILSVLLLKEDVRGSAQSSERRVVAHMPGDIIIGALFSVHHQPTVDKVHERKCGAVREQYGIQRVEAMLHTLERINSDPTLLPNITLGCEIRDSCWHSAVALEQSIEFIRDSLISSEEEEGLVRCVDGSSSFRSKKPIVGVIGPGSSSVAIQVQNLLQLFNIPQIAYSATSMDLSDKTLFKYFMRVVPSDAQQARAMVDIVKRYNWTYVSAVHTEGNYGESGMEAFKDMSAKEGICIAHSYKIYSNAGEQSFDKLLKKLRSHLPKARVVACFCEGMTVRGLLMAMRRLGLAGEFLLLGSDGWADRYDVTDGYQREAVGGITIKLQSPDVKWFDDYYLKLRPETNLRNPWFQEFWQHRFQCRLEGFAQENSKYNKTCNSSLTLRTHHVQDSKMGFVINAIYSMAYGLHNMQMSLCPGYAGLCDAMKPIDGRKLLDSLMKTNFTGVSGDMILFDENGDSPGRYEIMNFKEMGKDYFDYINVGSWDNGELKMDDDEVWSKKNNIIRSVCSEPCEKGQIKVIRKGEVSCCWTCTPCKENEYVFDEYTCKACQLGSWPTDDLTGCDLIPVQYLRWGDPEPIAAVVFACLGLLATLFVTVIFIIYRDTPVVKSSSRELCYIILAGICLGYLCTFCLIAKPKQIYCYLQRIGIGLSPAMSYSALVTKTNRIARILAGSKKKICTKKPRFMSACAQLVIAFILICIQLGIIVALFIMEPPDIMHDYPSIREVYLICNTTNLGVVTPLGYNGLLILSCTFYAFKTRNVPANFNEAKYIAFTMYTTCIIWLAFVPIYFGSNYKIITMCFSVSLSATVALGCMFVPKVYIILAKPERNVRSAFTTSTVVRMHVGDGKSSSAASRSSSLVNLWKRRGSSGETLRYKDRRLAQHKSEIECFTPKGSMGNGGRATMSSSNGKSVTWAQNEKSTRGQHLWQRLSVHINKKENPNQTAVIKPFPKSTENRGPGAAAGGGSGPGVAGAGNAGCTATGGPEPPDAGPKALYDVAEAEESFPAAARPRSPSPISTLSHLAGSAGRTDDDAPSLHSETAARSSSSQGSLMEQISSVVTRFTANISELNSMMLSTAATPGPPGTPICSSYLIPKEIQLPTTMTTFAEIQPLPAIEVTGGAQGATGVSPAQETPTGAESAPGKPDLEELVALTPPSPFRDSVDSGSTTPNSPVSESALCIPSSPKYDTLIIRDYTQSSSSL

In the case of `O=C(Cn1cnc2ccccc21)Nc1cccc(S(=O)(=O)N2CCCC2)c1`, the AC50 [1] is reported as 2.77 µM (active), the AC50 [2] is reported as 50.5 µM (active) and the AC50 [3] is reported as 10.1 µM (active). The IC50 (Protein Wnt-3a [4]) was 13.1 µM (active), the AC50 [5] was 2.61 µM (active) and the AC50 [6] was 1.79 µM (active).

With `O=C(NNC(=S)Nc1ccc(Br)cc1Cl)c1ccco1` the IC50 [7] was > 122 µM (inactive).

For `O=C(NCC1CC1)c1ccc2c3n(nc2c1)-c1ccccc1CO3`, the AC50 [8] was 26 µM (active) and the CC50 [9] was > 40 µM (active).

With `COc1ccc(CCNc2c3ccccc3nc3ccccc23)cc1OC` the IC50 [10] was 2.4 µM (active).

For `COc1ccc(C#Cc2ccc([C@H]3[C@H](CO)N4CCCCN(C(=O)Nc5ccccc5)C[C@@H]34)cc2)cc1`, the AC50 [11] was 6 µM (active) and the AC50 [12] was 10 µM (active).

Work on `CS(=O)(=O)N(CC(=O)NCC1CC1)c1cc(C(F)(F)F)ccc1Cl` yielded an EC50 [13] of 0.298 µM.

In the case of `COc1cccc(S(=O)(=O)Nc2ccc3c(c2)[C@H]2C[C@H](CC(=O)NCc4ccc(Cl)cc4)O[C@@H](CO)[C@H]2O3)c1`, the AC50 [14] is reported as 9.17 µM (active), the AC50 [15] is reported as 67 µM (active) and the AC50 [16] is reported as 1.29 µM (active). For the same molecule, the AC50 [17] was 19.4 µM (active) and the AC50 [18] was > 70 µM (inactive).

For `COc1ccccc1CN1CC[C@H]2[C@H](CO)Nc3ccc(C#Cc4ccccc4)cc3[C@H]21`, the AC50 (HeLa [19]) was 10.2 µM (active), the AC50 [20] was > 60 µM (inactive) and the AC50 [21] was 1.45 µM (active). For the same molecule, the AC50 [22] was 11.4 µM (active).

With `COc1ccc(C#Cc2ccc3c(c2)O[C@@H](CN(C)C(C)=O)[C@@H](C)CN([C@H](C)CO)S3(=O)=O)cc1` the AC50 (HeLa [19]) was > 52 µM (inactive), the AC50 (HEK293) was 17.8 µM (active) and the AC50 [23] was 17.8 µM (active).

For `CC(C)N1C[C@H](C)[C@@H](CN(C)C(=O)OC(C)(C)C)Oc2c(C(=O)Nc3ccncc3)cccc2C1=O`, the IC50 [24] was > 20 µM (inactive).

For `CC(C)N1C[C@H](C)[C@@H](CN(C)Cc2ccc(Oc3ccccc3)cc2)Oc2c(cccc2-c2nnc(-c3ccncc3)o2)C1=O`, the AC50 [25] was 0.116 µM (active).

With `O=C1C(=O)N(CCOc2ccc(Br)cc2)c2ccc(OC(F)(F)F)cc21` the EC50 [26] was 1.45 µM (active).

With `Cc1cc(C)c(S(=O)(=O)Nc2cc(SCC(=O)O)c(O)c3ccccc23)c(C)c1` the CC50 [27] was 9.03 µM (active).

With `CC(C)OC(=O)C(C(=O)C(F)(F)F)c1cc(NS(=O)(=O)c2ccccc2)c2ccccc2c1O` (stereo not given) the AC50 [28] was 40.4 µM (active).

With `CCN(CC)c1cc(NC(=O)c2cccc(C#N)c2)ncn1` the IC50 (Protein Wnt-3a [29]) was > 21.8 µM (inactive).

In the case of `COc1ccc2[nH]c3c(C)c4cc[n+](C)cc4c(C)c3c2c1`, the AC50 (HeLa [30]) is reported as 65.2 µM (active), the GI50 (P388/ADR) is reported as 55.8 µM (inactive) and the GI50 (SN12K1) is reported as 0.203 µM (active). For the same molecule, the GI50 (P388) was 0.773 µM (active), the IC50 [31] was > 66.6 µM (inactive) and the IC50 [32] was 9.55 µM (active). For the same molecule, the CC50 [33] was 100 µM (active), the IC50 [34] was 24.7 µM (active) and the AC50 [35] was < 0.15 µM (active).
